These results are taken from patent US9861640B2, “Medicament for treatment of Alzheimer's disease” (KEMPHYS LTD., priority 2013, dated 2018).

Assay [1] has as its system RA response element (RARE). Nature of the assay: RARE luciferase reporter gene assay in MG5 cells. The assay is classed as cell-based, mouse. Particulars: pGL3-RARE-Luc; 5 μM each, 24 h; fold induction relative to vehicle-treated cells. As for the experimental part:
MG5 cells (2×10^6 cells in 100 μl) were transfected by electroporation with 1.0 μg of pGL3-RARE-Luc (#13458; Addgene) or pGL3-Luc vector (Promega) and 0.25 μg of Renilla luciferase vector (phRL-TK) (Promega), using the Nucleofector transfection system (program #D-032; Amaxa) according to the manufacturer's protocol, taken up in the medium, and seeded in 48-well plates (1.25×10^5 cells/well). For some experiments, cells were transfected with 1.0 μg of pGL3-RARE-Luc or pGL3-Luc vector and 0.25 μg of phRL-TK in the presence of 0.25 μg each of pcDNA3.1-RAR (#16287; Addgene) and pcDNA3.1-RXR (#8882; Addgene). An empty pcDNA3.1 expression vector was used to maintain equal amounts of DNA for each transfection. Five hours after transfection, the cells were exposed to Am80 (5 μM) and/or HX630 (5 μM) in the medium for 24 h. Luciferase activities were determined in cell lysates. Firefly luciferase activity was normalized to that of Renilla luciferase for each well.
For orientation: Reporter assays use an easily measured gene product as a stand-in for the process of interest.

In a further assay the test system is APP23 mice. Description: Morris water maze (MWM) test. The assay is classed as in vivo, mouse. The following applies: 8.5-month-old male APP23 mice; for acquisition of spatial learning (escape latency) in the MWM test: oral Am80 0.5 mg/kg and/or HX630 5 mg/kg for 17 days, vs vehicle-treated APP23 mice. The procedure:
Hemizygous APP23 mice, which overexpress human-type AβPP carrying the double mutation K670N/M671L, were produced and bred as previously described. Only male mice were analyzed. Wistar rats were obtained from Kyudo Co., Ltd. (Kumamoto, Japan). Animals were housed in standard mouse cages under standard laboratory conditions: food and water available ad libitum, constant room temperature and humidity, and a 12 h light/12 h dark cycle (light on from 08:00 to 20:00). These animal experiments were conducted according to the guidelines of the Ministry of Education, Culture, Sports, Science, and Technology of Japan, and were approved by the Institutional Animal Care and Use Committee of Kumamoto University (#B25-133).
(§1) APP23 mice begin forming amyloid deposits when they are 6 months old, but memory deficits in the MWM test appear quite early (before 3 months of age). Here, we used 8.5-month-old male APP23 mice and their WT littermates (C57BL/6J). We used stratified random sampling to divide mice (four to six per cage) into four groups to equalize the mean body weight of the study groups: mice given 0.5 mg/kg/d Am80, those given 5 mg/kg/d HX630, those given the mixture of 0.5 mg/kg/d Am80 and 5 mg/kg/d HX630, and those given the vehicle. Am80 and HX630 were suspended in 0.5% (w/v) carboxymethylcellulose solution and were orally administered to mice at 0.5 mg/kg (Am80) or 5 mg/kg (HX630) for 17 consecutive days (once daily at 18:00). Control animals received the same volume of 0.5% (w/v) carboxymethylcellulose solution orally, without the other compounds. […]
The MWM test was performed as described previously. […] During both acquisition and probe trials, the routes of the mice were recorded by means of a computerized video tracking system (CompACT VAS; Muromachi Kikai Co. Ltd., Tokyo, Japan). Training trials measured the time it took for a mouse to find the escape platform. Probe trials determined the percent time spent in each quadrant of the maze. […]

Another assay concerns full-length (fl)-APP. Nature of the assay: Immunoblot of full-length APP in brains of APP23 mice. Type of assay: in vivo, mouse. The following applies: 8.5-month-old male APP23 mice; Am80 0.5 and/or HX630 5 mg/kg/d; day 18. The procedure: as §1, with “compounds. We set the 0.5 mg/kg/d dose for Am80 on the basis that this had been found effective in other in vivo studies, such as those by Kawahara et al. and Ishido and Shudo [37]. Higher doses of Am80 (3 mg/kg/d and 6 mg/kg/d) were also orally administered to mice for 17 consecutive days. Animals were weighed once a week. Mice were subjected to behavioral testing on days 15-18 of the first oral administration of the compounds (at 19:00-23:00). On days 15-17 (not day 18), animals received the compounds at 24:00, after behavioral testing.” for “compounds.”
For orientation: Immunoblotting shows a protein as a band on a membrane.

With `CN1c2ccccc2N=C(c2ccc(C(=O)O)cc2)c2cc3c(cc21)C(C)(C)CCC3(C)C` [HX630, 4-[5H-2,3-(2,5dimethyl-2,5-hexano)-5-methyldibenzo[b,e]-diazepin-11-yl]benzoic acid], the “RARE reporter activity in MG5 cells” value in assay [1] was “no increase”. In the assay on APP23 mice, the “acquisition of spatial learning (escape latency) in the MWM test” value is listed as “No significant difference”. The “total amount of full-length (fl)-APP in brain” value with full-length (fl)-APP was “had no effect”.
Regarding `CC1(C)CCC(C)(C)c2cc(NC(=O)c3ccc(C(=O)O)cc3)ccc21` [Am80, 4-{(5,6,7,8-tetrahydro-5,5,8,8-tetramethyl-2-naphthalenyl)carbamoyl}benzoic acid], the “RARE reporter activity in MG5 cells” value in assay [1] was found to be 4.3 fold. The “acquisition of spatial learning (escape latency) in the MWM test” value in the assay on APP23 mice is listed as “No significant difference”. In addition, the “memory deficits in APP23 mice (MWM)” value in the assay with APP23 mice (oral Am80 0.5 mg/kg and/or HX630 5 mg/kg, 17 days) is “did not ameliorate memory deficits”. The “total amount of full-length (fl)-APP in brain” value in the assay on full-length (fl)-APP is on record as “had no effect”.
